Experimental data as given in ChEMBL document CHEMBL1671703, “Bile acids improve the antimicrobial effect of rifaximin” (2010).
Activity calls are given as the source filed them. The calls are words filed in the database; no cut-off is given here.

Assays:
Escherichia coli [1] = assay: Bacteriostatic activity against Escherichia coli H10407 at 16 ug/ml in presence of bile acid relative to absence of bile acid; type: functional, ETEC H10407
Escherichia coli [2] = assay: Antimicrobial activity against Escherichia coli H10407 assessed as decrease in cell density at 16 ug/ml after 4 hrs in presence of 4 mM taurocholic acid; type: functional, ETEC H10407
Escherichia coli [3] = assay: Antimicrobial activity against Escherichia coli H10407 assessed as decrease in cell density at 16 ug/ml after 4 hrs in presence of 4 mM glycocholic acid; type: functional, ETEC H10407
Escherichia coli [4] = assay: Antimicrobial activity against Escherichia coli H10407 assessed as decrease in cell density at 16 ug/ml after 4 hrs in presence of 4 mM human bile acid; type: functional, ETEC H10407
Escherichia coli [5] = assay: Antimicrobial activity against Escherichia coli H10407 assessed as decrease in cell density at 16 ug/ml after 4 hrs in presence of 4 mM cholic acid; type: functional, ETEC H10407
Escherichia coli [6] = assay: Antimicrobial activity against Escherichia coli H10407 assessed as decrease in cell density at 16 ug/ml after 4 hrs in presence of 4 mM deoxycholic acid; type: functional, ETEC H10407
Escherichia coli [7] = assay: Inhibition of RNA synthesis in Escherichia coli H10407 assessed as inhibition of beta-galactosidase expression at 16 ug/ml in presence of […] bile acid; type: functional, ETEC H10407
Escherichia coli [8] = assay: Antimicrobial activity against Escherichia coli H10407 assessed as growth inhibition at 16 ug/ml; type: functional; conditions: ETEC H10407
Escherichia coli [9] = assay: Antimicrobial activity against Escherichia coli H10407 assessed as decrease in cell density at 16 ug/ml after 4 hrs in presence of 4 mM pooled synthetic bile acid; type: functional, ETEC H10407
Escherichia coli [10] = assay: Inhibition of RNA synthesis in Escherichia coli H10407 assessed as inhibition of beta-galactosidase expression at 8 ug/ml in presence of 4 mM bile acid; type: functional, ETEC H10407
Escherichia coli [11] = assay: Antimicrobial activity against Escherichia coli H10407 assessed as decrease in cell density at 16 ug/ml after 4 hrs in presence of 4 mM lithocholic acid; type: functional, ETEC H10407
Escherichia coli [12] = assay: Decrease in protein expression in Escherichia coli H10407 at 16 ug/ml after 4 hrs; type: functional, ETEC H10407; design: scale not given: the % may be the effect or the level left
Escherichia coli [13] = assay: Antimicrobial activity against Escherichia coli H10407 assessed as decrease in cell density at 16 ug/ml after 4 hrs; type: functional; conditions: ETEC H10407
Escherichia coli [14] = assay: Inhibition of RNA synthesis in Escherichia coli H10407 assessed as inhibition of beta-galactosidase expression relative to control; type: functional; conditions: ETEC H10407
Escherichia coli [15] = assay: Inhibition of RNA synthesis in Escherichia coli H10407 assessed as inhibition of beta-galactosidase expression at 32 ug/ml in presence of 4 mM bile acid; type: functional, ETEC H10407
Escherichia coli [16] = assay: Antimicrobial activity against Escherichia coli H10407 assessed as decrease in cell density at 16 ug/ml after 4 hrs in presence of 4 mM chenodeoxycholic acid; type: functional, ETEC H10407
Escherichia coli [17] = assay: Bacteriostatic activity against Escherichia coli H10407 at 8 ug/ml in presence of bile acid relative to absence of bile acid; type: functional, ETEC H10407

CO[C@H]1/C=C/O[C@@]2(C)Oc3c(C)c(O)c4c(O)c(c5c(nc6cc(C)ccn65)c4c3C2=O)NC(=O)/C(C)=C\C=C\[C@H](C)[C@H](O)[C@@H](C)[C@@H](O)[C@@H](C)[C@H](OC(C)=O)[C@@H]1C [RIFAXIMIN]
fold change (FC) (Escherichia coli [1]): 5.5 | inhibition (INH) (Escherichia coli [2]): 77.6% | inhibition (INH) (Escherichia coli [3]): 80.8% | inhibition (INH) (Escherichia coli [4]): 72.8% | inhibition (INH) (Escherichia coli [5]): 95.5% | inhibition (INH) (Escherichia coli [6]): 93.8% | inhibition (INH) (Escherichia coli [7]): 49% | inhibition (Escherichia coli [8]): Active | inhibition (INH) (Escherichia coli [9]): 70.6% | inhibition (INH) (Escherichia coli [10]): 33% | inhibition (INH) (Escherichia coli [11]): 43.9% | Activity (Escherichia coli [12]): 59% | Activity (Escherichia coli [13]): Active | inhibition (Escherichia coli [14]): Active | inhibition (INH) (Escherichia coli [15]): 82% | inhibition (INH) (Escherichia coli [16]): 89.2% | fold change (FC) (Escherichia coli [17]): 2
